Results published in patent US20240147995A1, “INSECT NEUROPEPTIDES 5” (Solasta Bio Limited, priority 2022, published 2024).

Legend:
[1] = system: Spodoptera frugiperda; test: Lepidoptera artificial diet assay against Spodoptera frugiperda (pupation and mortality); format: in vivo; details: unformulated SB-P-70; 1×10^−4 M in diet; L1 larvae; FIG. 8, after 168 hours; compared to negative control vehicle and DDT
Text: Frontier Lepidoptera artificial diet was made up by preparing agar at 1% and then mixing it with artificial diet powder. Peptide solution was aliquoted in 10 cells and diet poured straight onto it. The final concentration of the peptide was 1×10^−4 M, and each peptide was aliquoted in 10 cells. Once the diet solidified and cooled down, one L1 larvae was infested in each cell. The trays were sealed with heat and let larva were allowed to develop for 168 hrs. Finally, pupation and mortality were scored for. Lepidoptera artificial diet assays were performed with SB-P-70, and compared to a negative control vehicle and the insecticide dichlorodiphenyltrichloroethane (DDT).

[2] = system: Plutella xylostella; test: Leaf dip assay testing against Plutella xylostella (mortality); format: in vivo; details: unformulated SB-P-70; FIG. 6, after 96 hours; compared to negative control vehicle and Chlorantraniliprole
Method: The assay was carried out based on IRAC susceptibility test method 019 (https://irac-online.org/methods/aphids-adultnymphs/). Fill a small 4 cm wide 3 cm high dish with a 1% agar treatment solution of the active chemical or control (ensuring 1 cm gap between the agar and the lid) and leave to set. Dip a 2.5 cm leaf disc into 3 ml of treatment solution allowing the treatment to coat the leaf. Leave the disc to dry for 1 hour and place onto the set agar. Place insects (Plutella xylostella) onto each of the leaf discs. Each unit is sealed with a close-fitting, ventilated lid. Place the agar dishes in a small plastic tray lined with moist tissue paper and ensure the water trays in the bottom of the incubator are filled with clean water and place within the incubator. An assessment of mortality is made at 72, 96 and 120 hours. Leaf dip assays were performed with SB-P-70, and compared to a negative control vehicle and a current commercial insecticide Chlorantraniliprole. The activity of SB-P-70 is shown in FIG. 6; SB-P-70 has good activity whilst being eco-friendly and targeted to specific pests unlike broad spectrum chemical insecticides such as Chlorantraniliprole.

## [Hy]-KVKFSAWG-[NH2] (H-KVKFSAWG-NH2) [SB-P-70]
[1]
  activity against Spodoptera frugiperda (pupation and mortality, artificial diet assay): much higher activity
[2]
  activity against Plutella xylostella (mortality, leaf dip assay): good activity
